Measurements from PubChem BioAssay (NCI).
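48-hour exposure; five concentrations; linearly interpolated endpoints. Abbreviation: GI50, concentration required for 50% inhibition of growth. At the TGI there is no net growth.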

What was measured:
Assay in all cases: DTP human tumour cell line panel, 48 h
A498 renal = system: A498 renal
HCC-2998 colon = system: HCC-2998 colon
SK-MEL-28 melanoma = system: SK-MEL-28 melanoma
NCI-H522 lung = system: NCI-H522 lung
SW-620 colon = system: SW-620 colon
ACHN renal = system: ACHN renal
NCI-H226 lung = system: NCI-H226 lung
CCRF-CEM leukemia = system: CCRF-CEM leukemia
HOP-62 NSCLC = system: HOP-62 NSCLC
DU-145 prostate = system: DU-145 prostate

CC(NS(=O)(=O)c1ccc([N+](=O)[O-])cc1)C(=O)O (configuration not stated)
TGI (A498 renal): > 100 µM
TGI (HCC-2998 colon): > 100 µM
TGI (SK-MEL-28 melanoma): > 100 µM
TGI (NCI-H522 lung): > 100 µM
TGI (SW-620 colon): > 100 µM
TGI (ACHN renal): > 100 µM
TGI (NCI-H226 lung): > 100 µM
TGI (CCRF-CEM leukemia): > 100 µM

O=C1c2ccccc2-c2c1c1ccccc1c(=O)n2CCCCNCCCn1c2c(c3ccccc3c1=O)C(=O)c1ccccc1-2
GI50 (A498 renal): 1.49 µM
TGI (A498 renal): 5.64 µM
GI50 (HCC-2998 colon): 0.698 µM
TGI (HCC-2998 colon): 1.4 µM
GI50 (SK-MEL-28 melanoma): 2.95 µM
TGI (SK-MEL-28 melanoma): 34.8 µM
GI50 (HOP-62 NSCLC): 130 nM
TGI (HOP-62 NSCLC): 1.42 µM
GI50 (NCI-H522 lung): 0.361 µM
TGI (NCI-H522 lung): 6.39 µM
GI50 (SW-620 colon): 0.022 µM
TGI (SW-620 colon): 0.528 µM
GI50 (ACHN renal): 0.0416 µM
TGI (ACHN renal): 2.31 µM
GI50 (NCI-H226 lung): 0.375 µM
TGI (NCI-H226 lung): 3.11 µM
GI50 (DU-145 prostate): 0.379 µM
TGI (DU-145 prostate): 1.12 µM

O=C1[C@@H]2C(c3ccccc3Br)=NO[C@@H]2C(=O)N1c1ccc(Cc2ccc(N3C(=O)[C@H]4C(c5ccccc5Br)=NO[C@H]4C3=O)cc2)cc1
TGI (A498 renal): > 100 µM
TGI (HCC-2998 colon): > 100 µM
TGI (SK-MEL-28 melanoma): > 100 µM
TGI (HOP-62 NSCLC): > 100 µM
TGI (SW-620 colon): > 100 µM
TGI (ACHN renal): > 100 µM
TGI (NCI-H226 lung): > 100 µM
TGI (CCRF-CEM leukemia): > 100 µM

Cc1c(N2CCCC2)cc2c(c1NC(=O)c1ccccc1Cl)C(C)(C)CC2(C)C
TGI (A498 renal): 29.1 µM
TGI (HCC-2998 colon): 25.9 µM
TGI (SK-MEL-28 melanoma): 33.1 µM
TGI (HOP-62 NSCLC): 28.4 µM
TGI (NCI-H522 lung): 28.4 µM
TGI (SW-620 colon): 33.1 µM
TGI (ACHN renal): 28.4 µM
TGI (NCI-H226 lung): 41.5 µM
TGI (DU-145 prostate): 29.3 µM

OC(c1cccc(-n2ccc(C(F)(F)F)n2)c1)c1cnccc1NC1CCCCCC1 (configuration not stated)
GI50 (HCC-2998 colon): 1.61 µM
TGI (HCC-2998 colon): 3.03 µM
GI50 (SK-MEL-28 melanoma): 1.77 µM
TGI (SK-MEL-28 melanoma): 3.2 µM
GI50 (HOP-62 NSCLC): 1950 nM
TGI (HOP-62 NSCLC): 3.84 µM
GI50 (NCI-H522 lung): 1.76 µM
TGI (NCI-H522 lung): 3.59 µM
GI50 (SW-620 colon): 1.67 µM
TGI (SW-620 colon): 3.31 µM
GI50 (ACHN renal): 1.65 µM
TGI (ACHN renal): 3.02 µM
GI50 (CCRF-CEM leukemia): 2.35 µM
TGI (CCRF-CEM leukemia): 6.04 µM
GI50 (DU-145 prostate): 1.81 µM
TGI (DU-145 prostate): 3.24 µM

CC1CC[C@]2(C(=O)O)CCC3(COC(=O)/C=C\c4ccc(O)cc4)C(=CCC4[C@@]5(C)CC[C@H](O)C(C)(C)C5CC[C@]43C)[C@@H]2[C@H]1C (some centres not stated)
TGI (A498 renal): 60.4 µM
TGI (HCC-2998 colon): 33 µM
TGI (SK-MEL-28 melanoma): 35.5 µM
TGI (NCI-H522 lung): 44.6 µM
TGI (SW-620 colon): > 100 µM
TGI (ACHN renal): 22.5 µM
TGI (NCI-H226 lung): 39.5 µM
TGI (CCRF-CEM leukemia): 81.9 µM

CCOC(=O)c1c2c(c(O)c3ccccc3c(O)n(Cc3ccc(OC)cc3)c1C)C(=O)C=CC2=O
GI50 (A498 renal): > 100 µM
TGI (A498 renal): > 100 µM
GI50 (HCC-2998 colon): > 100 µM
TGI (HCC-2998 colon): > 100 µM
GI50 (SK-MEL-28 melanoma): > 100 µM
TGI (SK-MEL-28 melanoma): > 100 µM
GI50 (HOP-62 NSCLC): > 100000 nM
TGI (HOP-62 NSCLC): > 100 µM
GI50 (NCI-H522 lung): > 100 µM
TGI (NCI-H522 lung): > 100 µM
GI50 (SW-620 colon): > 100 µM
TGI (SW-620 colon): > 100 µM
GI50 (ACHN renal): > 100 µM
TGI (ACHN renal): > 100 µM
GI50 (NCI-H226 lung): 65.3 µM
TGI (NCI-H226 lung): > 100 µM
GI50 (DU-145 prostate): > 100 µM
TGI (DU-145 prostate): > 100 µM

CC1CC(C2=CC=CCS2)=Nc2ccccc2S1 (configuration not stated)
TGI (A498 renal): > 100 µM
TGI (HCC-2998 colon): > 100 µM
TGI (SK-MEL-28 melanoma): > 100 µM
TGI (HOP-62 NSCLC): > 100 µM
TGI (NCI-H522 lung): > 100 µM
TGI (SW-620 colon): > 100 µM
TGI (ACHN renal): > 100 µM
TGI (CCRF-CEM leukemia): > 100 µM

Cc1ccc(NC(=O)c2cc3cc(N=Nc4ccc(Br)cc4)ccc3oc2=O)cc1
TGI (A498 renal): > 100 µM
TGI (HCC-2998 colon): > 100 µM
TGI (SK-MEL-28 melanoma): > 100 µM
TGI (NCI-H522 lung): > 100 µM
TGI (SW-620 colon): > 100 µM
TGI (ACHN renal): > 100 µM
TGI (NCI-H226 lung): > 100 µM

COc1ccc(OC)c(/C=N/NC(=O)Cc2csc3nc(-c4ccc(Br)cc4)cn23)c1
GI50 (HCC-2998 colon): 10 µM
TGI (HCC-2998 colon): 34.9 µM
GI50 (SK-MEL-28 melanoma): 41.5 µM
TGI (SK-MEL-28 melanoma): > 100 µM
GI50 (HOP-62 NSCLC): 13200 nM
TGI (HOP-62 NSCLC): 30.3 µM
GI50 (NCI-H522 lung): 22.7 µM
TGI (NCI-H522 lung): > 100 µM
GI50 (SW-620 colon): 6.44 µM
TGI (SW-620 colon): 49.1 µM
GI50 (ACHN renal): 16.9 µM
TGI (ACHN renal): 34.5 µM
GI50 (CCRF-CEM leukemia): 9.59 µM
TGI (CCRF-CEM leukemia): > 100 µM
GI50 (DU-145 prostate): 17.9 µM
TGI (DU-145 prostate): 48 µM

N=C(N)c1ccc(OCc2cccc(COc3ccc(C(=N)N)cc3)c2)cc1
GI50 (HCC-2998 colon): 11.4 µM
TGI (HCC-2998 colon): 33.2 µM
GI50 (SK-MEL-28 melanoma): 5.15 µM
TGI (SK-MEL-28 melanoma): 29.1 µM
GI50 (NCI-H522 lung): 16 µM
TGI (NCI-H522 lung): > 100 µM
GI50 (SW-620 colon): 5.64 µM
TGI (SW-620 colon): 21.3 µM
GI50 (ACHN renal): 17.8 µM
TGI (ACHN renal): 49.3 µM
GI50 (NCI-H226 lung): 7.2 µM
TGI (NCI-H226 lung): 23.1 µM
GI50 (DU-145 prostate): 6.12 µM
TGI (DU-145 prostate): 20.3 µM

CN1N=CSC12C(=O)N(c1ccc(Cl)cc1)C(=O)N2c1ccc(Cl)cc1 (configuration not stated)
TGI (A498 renal): 9.67 µM
TGI (HCC-2998 colon): 37.7 µM
TGI (SK-MEL-28 melanoma): > 100 µM
TGI (HOP-62 NSCLC): 15.5 µM
TGI (NCI-H522 lung): 5.73 µM
TGI (SW-620 colon): > 100 µM
TGI (NCI-H226 lung): 8.66 µM
TGI (CCRF-CEM leukemia): > 100 µM

Cc1nc(-c2cccc(Nc3nc(-c4ccc(Cl)cc4)cs3)c2)cs1
GI50 (A498 renal): 12.3 µM
TGI (A498 renal): 20.9 µM
GI50 (SK-MEL-28 melanoma): 9.6 µM
TGI (SK-MEL-28 melanoma): 21.3 µM
GI50 (HOP-62 NSCLC): 12300 nM
TGI (HOP-62 NSCLC): 24.5 µM
GI50 (NCI-H522 lung): 8.8 µM
TGI (NCI-H522 lung): 19 µM
GI50 (SW-620 colon): 11.9 µM
TGI (SW-620 colon): 27 µM
GI50 (ACHN renal): 10.1 µM
TGI (ACHN renal): 17.5 µM
GI50 (DU-145 prostate): 9.73 µM
TGI (DU-145 prostate): 18.4 µM

COC(=O)C1=C(c2ccc(OC)c(OC)c2)OC(c2ccc(OC)c(OC)c2)C1 (configuration not stated)
TGI (A498 renal): 46.9 µM
TGI (HCC-2998 colon): > 100 µM
TGI (SK-MEL-28 melanoma): > 100 µM
TGI (HOP-62 NSCLC): > 100 µM
TGI (SW-620 colon): > 100 µM
TGI (ACHN renal): > 100 µM
TGI (NCI-H226 lung): > 100 µM
TGI (CCRF-CEM leukemia): > 100 µM

C/C(CN1C(=O)c2ccccc2C1=O)=N\NS(=O)(=O)c1ccc(C)cc1
TGI (A498 renal): > 100 µM
TGI (HCC-2998 colon): > 100 µM
TGI (HOP-62 NSCLC): > 100 µM
TGI (NCI-H522 lung): > 100 µM
TGI (SW-620 colon): > 100 µM
TGI (ACHN renal): > 100 µM
TGI (NCI-H226 lung): > 100 µM
TGI (CCRF-CEM leukemia): > 100 µM

CCN(CC)CCOCC[C@H]1CC[C@H]2[C@@H]3[C@H](C)Cc4cc(OS(N)(=O)=O)ccc4[C@H]3CC[C@]12C
GI50 (A498 renal): 1.54 µM
TGI (A498 renal): 3.96 µM
GI50 (HCC-2998 colon): 1.63 µM
TGI (HCC-2998 colon): 3.23 µM
GI50 (SK-MEL-28 melanoma): 1.27 µM
TGI (SK-MEL-28 melanoma): 2.53 µM
GI50 (HOP-62 NSCLC): 1430 nM
TGI (HOP-62 NSCLC): 2.88 µM
GI50 (NCI-H522 lung): 1.52 µM
TGI (NCI-H522 lung): 3.39 µM
GI50 (SW-620 colon): 1.38 µM
TGI (SW-620 colon): 2.75 µM
GI50 (ACHN renal): 1.95 µM
TGI (ACHN renal): 5.33 µM
GI50 (CCRF-CEM leukemia): 1.14 µM
TGI (CCRF-CEM leukemia): 4.34 µM
GI50 (DU-145 prostate): 1.48 µM
TGI (DU-145 prostate): 2.94 µM

FC(F)(F)c1nc(N2CCCC2)ncc1-c1nnnn1-c1ccc(Cl)cc1
GI50 (A498 renal): 18.3 µM
TGI (A498 renal): 62.7 µM
GI50 (HCC-2998 colon): 26.7 µM
TGI (HCC-2998 colon): 72.2 µM
GI50 (SK-MEL-28 melanoma): 20 µM
TGI (SK-MEL-28 melanoma): 74.8 µM
GI50 (NCI-H522 lung): 10.2 µM
TGI (NCI-H522 lung): 59 µM
GI50 (SW-620 colon): 30.4 µM
TGI (SW-620 colon): > 100 µM
GI50 (ACHN renal): 18.7 µM
TGI (ACHN renal): > 100 µM
GI50 (NCI-H226 lung): 13.9 µM
TGI (NCI-H226 lung): > 100 µM
GI50 (CCRF-CEM leukemia): 6.71 µM
TGI (CCRF-CEM leukemia): 45.4 µM
GI50 (DU-145 prostate): 48.4 µM
TGI (DU-145 prostate): > 100 µM

NC1=NC(=O)/C(=C/c2ccccc2[N+](=O)[O-])C(N)=N1
TGI (HCC-2998 colon): > 100 µM
TGI (SK-MEL-28 melanoma): > 100 µM
TGI (HOP-62 NSCLC): > 100 µM
TGI (NCI-H522 lung): > 100 µM
TGI (SW-620 colon): > 100 µM
TGI (ACHN renal): > 100 µM
TGI (NCI-H226 lung): > 100 µM
TGI (CCRF-CEM leukemia): > 100 µM
